Among the data in US11066396B2 (priority 2016, dated 2021) are IC50 values, retold here.

One assay addresses HDAC8 (Homo sapiens (Human), UniProt Q9BY41). The following applies: read-out: HDAC8 IC50.
The target in a further assay is HDAC1 (Homo sapiens (Human), UniProt Q13547). The following applies: read-out: HDAC1 IC50.

Structures are written as SMILES.

By IC50 is commonly meant the concentration at which inhibition is half-maximal.

Sequence of HDAC8 (Q9BY41 whole entry): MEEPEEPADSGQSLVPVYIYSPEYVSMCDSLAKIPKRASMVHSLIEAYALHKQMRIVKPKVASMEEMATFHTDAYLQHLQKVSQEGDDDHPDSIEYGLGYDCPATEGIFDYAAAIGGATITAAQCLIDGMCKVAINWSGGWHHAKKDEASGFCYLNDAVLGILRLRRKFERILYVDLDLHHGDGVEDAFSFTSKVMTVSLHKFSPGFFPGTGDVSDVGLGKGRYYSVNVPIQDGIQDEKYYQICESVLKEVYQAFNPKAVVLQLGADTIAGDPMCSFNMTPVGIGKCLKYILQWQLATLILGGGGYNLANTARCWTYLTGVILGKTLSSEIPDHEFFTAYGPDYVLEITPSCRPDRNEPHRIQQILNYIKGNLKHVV
Sequence of HDAC1 (Q13547 whole entry): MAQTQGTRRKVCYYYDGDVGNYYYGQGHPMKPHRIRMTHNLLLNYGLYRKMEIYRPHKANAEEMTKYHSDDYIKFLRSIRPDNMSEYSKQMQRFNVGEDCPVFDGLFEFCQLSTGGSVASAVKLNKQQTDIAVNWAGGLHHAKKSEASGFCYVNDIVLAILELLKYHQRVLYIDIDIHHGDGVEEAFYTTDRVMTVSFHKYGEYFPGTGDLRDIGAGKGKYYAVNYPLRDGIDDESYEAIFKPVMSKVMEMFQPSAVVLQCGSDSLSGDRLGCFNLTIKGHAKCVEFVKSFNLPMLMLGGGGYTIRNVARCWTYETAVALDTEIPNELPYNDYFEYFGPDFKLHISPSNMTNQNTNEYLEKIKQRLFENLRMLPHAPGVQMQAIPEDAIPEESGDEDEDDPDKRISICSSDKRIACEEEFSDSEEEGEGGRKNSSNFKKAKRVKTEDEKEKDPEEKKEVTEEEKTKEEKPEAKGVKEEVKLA

With `Cc1noc([C@@H]2COCC(=O)N2c2ccc(-c3noc(C(F)(F)F)n3)cc2)n1` [Example 47, (S)-5-(3-methyl-1,2,4-oxadiazol-5-yl)-4-(4-(5-(trifluoromethyl)-1,2,4-oxadiazol-3-yl)phenyl)morpholin-3-one], the concentration for half-maximal inhibition (IC50) came to 3000 nM at HDAC8 and 1500 nM on HDAC1.
As to `CC(C)c1ncc(C(=O)N(Cc2ccc(-c3noc(C(F)(F)F)n3)cn2)c2cccc(F)c2)cn1` [Example 53, N-(3-fluorophenyl)-2-isopropyl-N-((5-(5-(trifluoromethyl)-1,2,4-oxadiazol-3-yl)pyridin-2-yl)methyl)pyrimidine-5-carboxamide], the figures for the 50% inhibitory concentration (IC50) at HDAC8 and at HDAC1 were 1800 nM and 170 nM, respectively.
As for `Cc1nccnc1C(=O)N(Cc1ccc(-c2noc(C(F)(F)F)n2)cn1)c1cccc(F)c1` [Example 56, N-(3-fluorophenyl)-3-methyl-N-((5-(5-(trifluoromethyl)-1,2,4-oxadiazol-3-yl)pyridin-2-yl)methyl)pyrazine-2-carboxamide], the IC50 at HDAC8 amounted to 3100 nM; on HDAC1, 250 nM.
On to `Cc1cc(CC(=O)N(Cc2ccc(-c3noc(C(F)(F)F)n3)cn2)c2cccc(F)c2)on1` [Example 59, N-(3-fluorophenyl)-2-(3-methylisoxazol-5-yl)-N-((5-(5-(trifluoromethyl)-1,2,4-oxadiazol-3-yl)pyridin-2-yl)methyl)acetamide], for which the half-inhibitory concentration (IC50) on HDAC8 was 1500 nM; on HDAC1, 210 nM.
Consider `Cc1nonc1CC(=O)N(Cc1ccc(-c2noc(C(F)(F)F)n2)cn1)c1cccc(F)c1` [Example 62, N-(3-fluorophenyl)-2-(4-methyl-1,2,5-oxadiazol-3-yl)-N-((5-(5-(trifluoromethyl)-1,2,4-oxadiazol-3-yl)pyridin-2-yl)methyl)acetamide], for which the IC50 at HDAC8 turned out to be 3500 nM; on HDAC1, 480 nM.
Regarding `O=C(N(Cc1ccc(-c2noc(C(F)(F)F)n2)cn1)c1cccc(F)c1)C1(CN2CCOCC2)CC1` [Example 65, N-(3-fluorophenyl)-1-(morpholinomethyl)-N-((5-(5-(trifluoromethyl)-1,2,4-oxadiazol-3-yl)pyridin-2-yl)methyl)cyclopropane-1-carboxamide], the IC50 was 3000 nM at HDAC8 and 240 nM on HDAC1.
With `CC(=O)N1CCN(CC(=O)N(Cc2ccc(-c3noc(C(F)(F)F)n3)cc2)c2cccc(C(F)(F)F)c2)CC1` [Example 69, 2-(4-acetylpiperazin-1-yl)-N-(4-(5-(trifluoromethyl)-1,2,4-oxadiazol-3-yl)benzyl)-N-(3-(trifluoromethyl)phenyl)acetamide], the IC50 on HDAC8 is 2600 nM; at HDAC1, 1300 nM.
As for `O=C(Cn1ncccc1=O)N(Cc1ccc(-c2noc(C(F)(F)F)n2)cc1)c1cccc(C(F)(F)F)c1` [Example 70, 2-(6-oxopyridazin-1(6H)-yl)-N-(4-(5-(trifluoromethyl)-1,2,4-oxadiazol-3-yl)benzyl)-N-(3-(trifluoromethyl)phenyl)acetamide], the IC50 on HDAC8 turned out to be 2200 nM; at HDAC1, 960 nM.
In the case of `O=C(c1cncnc1)N(Cc1ccc(-c2noc(C(F)(F)F)n2)cc1)c1cccc(C(F)(F)F)c1` [Example 71, N-(4-(5-(trifluoromethyl)-1,2,4-oxadiazol-3-yl)benzyl)-N-(3-(trifluoromethyl)phenyl)pyrimidine-5-carboxamide], the IC50 on HDAC8 is 2800 nM; at HDAC1, 670 nM.
For `O=C(CCCn1cncn1)N(Cc1ccc(-c2noc(C(F)(F)F)n2)cc1)c1cccc(C(F)(F)F)c1` [Example 72, 4-(1H-1,2,4-triazol-1-yl)-N-(4-(5-(trifluoromethyl)-1,2,4-oxadiazol-3-yl)benzyl)-N-(3-(trifluoromethyl)phenyl)butanamide], the IC50 on HDAC8 amounted to 2000 nM; on HDAC1 it was 1900 nM.
In the same order, the values of `Cc1nnc(CC(=O)N(Cc2ccc(-c3noc(C(F)(F)F)n3)cc2)c2cccc(C(F)(F)F)c2)n1C` [Example 75, 2-(4,5-dimethyl-4H-1,2,4-triazol-3-yl)-N-(4-(5-(trifluoromethyl)-1,2,4-oxadiazol-3-yl)benzyl)-N-(3-(trifluoromethyl)phenyl)acetamide] are 2300 nM and 860 nM.
